Measurements taken from publication doi:10.1101/2024.08.19.608619, “Discovery of potent SARS-CoV-2 nsp3 macrodomain inhibitors uncovers lack of translation to cellular antiviral response” (bioRxiv, 2024).
Values after ≈ are worked out from the molar mass of the structure shown.

How the values were obtained:
[1] = Permeability Papp (AB) MDR1/MDCKII; conditions: In vitro MDR1-MDCKII permeability; for papp_a_to_b_mean: A to B; for perc_recovery_a_to_b_mean: recovery A to B
LogD = conditions: pH 7.4; In vitro LogD
[2] = In vitro kinetic solubility; conditions: In vitro kinetic solubility, ph 7.4
[3] = Hepatic microsomal stability, HLM; type: in vitro ADME, human; conditions: In vitro human liver microsomal stability; for perc_remaining_no_cofactor: no cofactor
[4] = Hepatic microsomal stability, MLM; type: in vitro ADME
[5] = In vitro mouse liver microsomal stability
[6] = In vitro mouse liver microsomal stability, no cofactor
[7] = In vitro mouse liver microsomal stability; no cofactor

Row | SMILES | papp_a_to_b_mean ([1]; mean) [×10⁻⁶ cm/s] | perc_recovery_a_to_b_mean ([1]; mean) [%] | logd (LogD) | solubility_mean [2] [µM] | clint [3] [µL/min/mg] | perc_remaining [3] [%] | t_half [3] [min] | perc_remaining_no_cofactor [3] [%] | clint [4, 5] [µL/min/mg] | perc_remaining [4, 5] [%] | t_half [4, 5] [min] | perc_remaining_no_cofactor [4, 6] [%] | perc_remaining_no_cofactor [4, 7] [%] | papp_a_to_b_mean ([1]; no inhibitor) [×10⁻⁶ cm/s] | perc_recovery_a_to_b_mean ([1]; no inhibitor) [%]
1 | CNC(=O)c1c[nH]c2ncnc(N[C@H](c3ccc4c(c3)NC(=O)CO4)C(C)C)c12 (racemic) [ASAP-0008637] | 4.26 | 97.4 | 3.2 | 28 (≈ 11 µg/mL) | 86.0 | 23.0 | 19.5 | 98.0 | 113.0 | 16.0 | 14.8 | 95.0 | – | – | –
2 | CNC(=O)c1c[nH]c2ncnc(N[C@H](c3ccc4c(c3)S(=O)(=O)CCC4)C(C)C)c12 (racemic) [ASAP-0008641] | 2.23 | 79.1 | 2.5 | 390 (≈ 167 µg/mL) | 131.0 | 11.0 | 12.8 | 104.0 | 192.0 | 3.0 | 8.7 | 92.0 | – | – | –
3 | CC(C)[C@H](Nc1ncnc2[nH]cc(C(=O)NC3CC3)c12)c1ccc2c(c1)S(=O)(=O)CCC2 (racemic) [ASAP-0008647] | 2.46 | 73.4 | 3.1 | 257 (≈ 117 µg/mL) | 29.0 | 57.0 | 57.0 | 90.0 | 234.0 | 2.0 | 7.2 | 101.0 | – | – | –
4 | CC(C)(C)[C@H](Nc1ncnc2[nH]c(-c3cnn(CC(N)=O)c3)cc12)c1ccc2c(n1)OCCO2 (racemic) [ASAP-0008648] | 0.822 | 88.8 | 2.7 | 48 (≈ 22.2 µg/mL) | 36.0 | 55.0 | 46.0 | 96.0 | 31.0 | 60.0 | 53.1 | 90.0 | – | – | –
5 | COCCNC(=O)c1c[nH]c2ncnc(N[C@H](c3ccc4c(c3)S(=O)(=O)CCC4)C(C)C)c12 (racemic) [ASAP-0008650] | 1.62 | 73.3 | 2.8 | 378 (≈ 178 µg/mL) | 540.0 | 0.0 | 3.1 | 106.0 | 888.0 | 0.0 | 1.9 | 99.0 | – | – | –
6 | CC(C)[C@H](Nc1ncnc2[nH]c(-c3cnn(CC(N)=O)c3)cc12)c1ccc2c(c1)S(=O)(=O)CCC2 (racemic) [ASAP-0008679] | 0.32 | 79.9 | 1.9 | 341 (≈ 168 µg/mL) | 116.0 | 15.0 | 14.4 | 95.0 | 61.0 | 37.0 | 27.4 | – | 109.0 | – | –
7 | CCNC(=O)c1cc2c(N[C@H](c3ccc4c(c3)S(=O)(=O)CCC4)C(C)C)ncnc2[nH]1 (racemic) [ASAP-0008711] | 0.7 | 87.2 | 2.8 | 336 (≈ 148 µg/mL) | 108.0 | 15.0 | 15.4 | 98.0 | 85.0 | 21.0 | 19.5 | – | 95.0 | – | –
8 | CC(C)[C@H](Nc1ncnc(N)c1Cl)c1ccc2c(c1)S(=O)(=O)CCC2 (racemic) [ASAP-0010739] | 10.1 | 58.5 | 2.4 | ≥ 400 | 79.0 | 27.0 | 21.0 | 101.0 | 204.0 | 4.0 | 8.2 | 102.0 | – | – | –
9 | CC(C)[C@H](Nc1ncnc2[nH]c(-c3cnn(CC(N)=O)c3)cc12)c1ccc2c(c1)OCCO2 (single isomer, unassigned) [ASAP-0008450] | 1.87 | 90.9 | 2.9 | 332 (≈ 149 µg/mL) | 238.0 | 2.0 | 7.0 | 90.0 | 42.0 | 49.0 | 40.0 | 98.0 | – | – | –
10 | CC(C)(C)[C@H](Nc1ncnc2[nH]c(-c3cnn(CC(N)=O)c3)cc12)c1ccc2c(n1)OCCO2 (single isomer, unassigned) [ASAP-0011159] | – | – | 2.7 | 372 (≈ 172 µg/mL) | 27.0 | 64.0 | 60.8 | 95.0 | 10.0 | 88.0 | 162.3 | 116.0 | – | 1.02 | 95.8
11 | CC(C)[C@H](Nc1ncnc2[nH]cc(C(=O)NC3CC3)c12)c1ccc2c(c1)S(=O)(=O)CCC2 (single isomer, unassigned) [ASAP-0011247] | – | – | 3.0 | 19 (≈ 8.62 µg/mL) | 5.0 | 90.0 | 320.1 | 112.0 | 42.0 | 50.0 | 39.5 | 102.0 | – | 1.27 | 71.5
12 | CC(C)(C)[C@H](Nc1ncnc2[nH]c(-c3cnn(CC(N)=O)c3)cc12)c1ccc2c(c1)OCCO2 (single isomer, unassigned) [ASAP-0012332] | – | – | 3.1 | 104 (≈ 48 µg/mL) | 100.0 | 18.0 | 16.8 | 109.0 | 39.0 | 54.0 | 43.1 | 106.0 | – | 1.01 | 76.5
13 | CNC(=O)c1cc2c(N[C@H](c3ccc4c(c3)S(=O)(=O)CCC4)C(C)C)ncnc2[nH]1 (single isomer, unassigned) [ASAP-0012340] | – | – | 2.3 | 374 (≈ 160 µg/mL) | 67.0 | 33.0 | 25.0 | 107.0 | 47.0 | 42.0 | 35.3 | 106.0 | – | 0.891 | 74.2
14 | CC(C)[C@H](Nc1ncnc2[nH]c(-c3cnn(C)c3C#N)cc12)c1ccc2c(c1)NC(=O)CO2 (single isomer, unassigned) [ASAP-0013256] | – | – | 3.4 | 19 (≈ 8.41 µg/mL) | 52.0 | 44.0 | 32.3 | 109.0 | 147.0 | 10.0 | 11.3 | 102.0 | – | 2.35 | 78.9
15 | CC(C)[C@H](Nc1ncnc2[nH]c(-c3cnn(CC(=O)N(C)C)c3)cc12)c1ccc2c(c1)OCCO2 (single isomer, unassigned) [ASAP-0013833] | – | – | 2.9 | 19 (≈ 9.04 µg/mL) | 500.0 | 0.0 | 3.3 | 115.0 | 35.0 | 54.0 | 48.1 | 102.0 | – | 2.05 | 82.0
16 | CC(C)[C@H](Nc1ncnc2[nH]c(-c3cnn(CC(=O)N(C)C)c3)cc12)c1ccc2c(c1)OCCO2 (single isomer, unassigned) [ASAP-0013837] | – | – | 3.0 | 205 (≈ 97.5 µg/mL) | 108.0 | 18.0 | 15.4 | 114.0 | 45.0 | 48.0 | 36.8 | 114.0 | – | 1.62 | 87.9
17 | CC(C)[C@H](CO)Nc1ncnc2[nH]ccc12 [ASAP-0000453] | 13.1 | 89.0 | 1.69 | ≥ 400 | 6.0 | 119.0 | 289.0 | 99.0 | 10.0 | 90.0 | 171.1 | – | 93.0 | – | –
